From PubChem BioAssay (NCI)
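Where inhibition never reached the appropriate level, the endpoint shown equals the highest concentration tested. Otherwise, values were interpolated linearly from a five-concentration, 48-hour dose response in 96-well plates. TGI: concentration producing complete growth inhibition.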

Assays:
Assay in all cases: DTP human tumour cell line panel, 48 h
[1] = tested on: 786-0 renal
[2] = tested on: A498 renal
[3] = tested on: ACHN renal
[4] = tested on: CAKI-1 renal
[5] = tested on: CCRF-CEM leukemia
[6] = tested on: DU-145 prostate
[7] = tested on: EKVX NSCLC
[8] = tested on: HCC-2998 colon
[9] = tested on: HCT-116 colon
[10] = tested on: HCT-15 colon
[11] = tested on: HL-60(TB) leukemia
[12] = tested on: HOP-62 NSCLC
[13] = tested on: HOP-92 NSCLC
[14] = tested on: HS 578T breast
[15] = tested on: HT29 colon
[16] = tested on: IGROV1 ovarian
[17] = tested on: K-562 leukemia
[18] = tested on: KM12 colon
[19] = tested on: LOX IMVI melanoma
[20] = tested on: M14 melanoma
[21] = tested on: MCF7 breast
[22] = tested on: MDA-MB-231 breast
[23] = tested on: MDA-MB-435
[24] = tested on: MDA-N
[25] = tested on: MOLT-4 leukemia
[26] = tested on: NCI-H226 lung
[27] = tested on: NCI-H23 lung
[28] = tested on: NCI-H460 lung
[29] = tested on: NCI-H522 lung
[30] = tested on: NCI/ADR-RES ovarian
[31] = tested on: OVCAR-3 ovarian
[32] = tested on: OVCAR-4 ovarian
[33] = tested on: OVCAR-5 ovarian
[34] = tested on: OVCAR-8 ovarian
[35] = tested on: PC-3 prostate
[36] = tested on: RPMI-8226 leukemia
[37] = tested on: RXF 393 renal
[38] = tested on: SF-268 CNS
[39] = tested on: SF-295 CNS
[40] = tested on: SF-539 CNS
[41] = tested on: SK-MEL-2 melanoma
[42] = tested on: SK-MEL-28 melanoma
[43] = tested on: SK-MEL-5 melanoma
[44] = tested on: SK-OV-3 ovarian
[45] = tested on: SNB-75 CNS
[46] = tested on: SR leukemia
[47] = tested on: SW-620 colon
[48] = tested on: T-47D breast
[49] = tested on: TK-10 renal
[50] = tested on: U251 CNS
[51] = tested on: UACC-257 melanoma
[52] = tested on: UO-31 renal
[53] = tested on: A549 NSCLC
[54] = tested on: COLO 205 colon
[55] = tested on: MALME-3M melanoma
[56] = tested on: SN12C renal
[57] = tested on: SNB-19 CNS
[58] = tested on: UACC-62 melanoma

Structure (SMILES): COc1ccc(/C=C2/C(C)=NN(c3cccc(Cl)c3)/C2=N/c2nc3ccccc3s2)cc1
- TGI [1]: 38.1 µM
- TGI [2]: 62.4 µM
- TGI [3]: 42.2 µM
- TGI [4]: 86.6 µM
- TGI [5]: 92.7 µM
- TGI [6]: 39.4 µM
- TGI [7]: 83.1 µM
- TGI [8]: 33.2 µM
- TGI [9]: 33.9 µM
- TGI [10]: 36.1 µM
- TGI [11]: 51.4 µM
- TGI [12]: 47.2 µM
- TGI [13]: 47.7 µM
- TGI [14]: 66.1 µM
- TGI [15]: 37.8 µM
- TGI [16]: 46.7 µM
- TGI [17]: > 100 µM
- TGI [18]: > 100 µM
- TGI [19]: 33.4 µM
- TGI [20]: 60.8 µM
- TGI [21]: 84.4 µM
- TGI [22]: 67.5 µM
- TGI [23]: > 100 µM
- TGI [24]: 41.6 µM
- TGI [25]: 63.8 µM
- TGI [26]: 56.4 µM
- TGI [27]: 34.6 µM
- TGI [28]: 43.2 µM
- TGI [29]: 35.2 µM
- TGI [30]: 71.6 µM
- TGI [31]: 48.8 µM
- TGI [32]: > 100 µM
- TGI [33]: 69.6 µM
- TGI [34]: 49.3 µM
- TGI [35]: 38 µM
- TGI [36]: 66.6 µM
- TGI [37]: 26.8 µM
- TGI [38]: 66.9 µM
- TGI [39]: 49.5 µM
- TGI [40]: 60.7 µM
- TGI [41]: 41.8 µM
- TGI [42]: 46.9 µM
- TGI [43]: 33.7 µM
- TGI [44]: 63.7 µM
- TGI [45]: 86.6 µM
- TGI [46]: 62.6 µM
- TGI [47]: 52 µM
- TGI [48]: > 100 µM
- TGI [49]: 68.8 µM
- TGI [50]: 47 µM
- TGI [51]: 55.7 µM
- TGI [52]: 44.1 µM

Structure (SMILES): O=C(O)C1CC2C3CCC2C1C3=O (centres undefined)
- TGI [1]: > 100 µM
- TGI [2]: > 100 µM
- TGI [53]: > 100 µM
- TGI [3]: > 100 µM
- TGI [4]: > 100 µM
- TGI [5]: > 100 µM
- TGI [54]: > 100 µM
- TGI [6]: > 100 µM
- TGI [7]: > 100 µM
- TGI [8]: > 100 µM
- TGI [9]: > 100 µM
- TGI [10]: > 100 µM
- TGI [11]: > 100 µM
- TGI [12]: > 100 µM
- TGI [13]: > 100 µM
- TGI [14]: > 100 µM
- TGI [15]: > 100 µM
- TGI [16]: > 100 µM
- TGI [17]: > 100 µM
- TGI [18]: > 100 µM
- TGI [19]: > 100 µM
- TGI [20]: > 100 µM
- TGI [55]: > 100 µM
- TGI [21]: > 100 µM
- TGI [22]: > 100 µM
- TGI [23]: > 100 µM
- TGI [24]: > 100 µM
- TGI [25]: > 100 µM
- TGI [26]: > 100 µM
- TGI [27]: > 100 µM
- TGI [28]: > 100 µM
- TGI [29]: > 100 µM
- TGI [30]: > 100 µM
- TGI [31]: > 100 µM
- TGI [32]: > 100 µM
- TGI [33]: > 100 µM
- TGI [34]: > 100 µM
- TGI [35]: > 100 µM
- TGI [37]: > 100 µM
- TGI [38]: > 100 µM
- TGI [39]: > 100 µM
- TGI [40]: > 100 µM
- TGI [41]: > 100 µM
- TGI [42]: > 100 µM
- TGI [43]: > 100 µM
- TGI [44]: > 100 µM
- TGI [56]: > 100 µM
- TGI [57]: > 100 µM
- TGI [45]: > 100 µM
- TGI [46]: > 100 µM
- TGI [47]: > 100 µM
- TGI [48]: > 100 µM
- TGI [49]: > 100 µM
- TGI [50]: > 100 µM
- TGI [51]: > 100 µM
- TGI [58]: > 100 µM
- TGI [52]: > 100 µM
